Test results taken from PMC11392244, “Characterization of a unique catechol-O-methyltransferase as a molecular drug target in parasitic filarial nematodes” (PLOS Neglected Tropical Diseases, 2024).
pEC50, pIC50: −log10 of the molar value. “And” between values parts separate entries of the source, which are not always exact repeats. Equal entries are not always repeated.

Columns and labels:
[1] = tested on: mammalian cells; conditions: read-out: Cytotoxicity IC50, ref Tan et al., [31]; cited from earlier work
[2] = tested on: D. immitis microfilariae; test: In vitro efficacy against live D. immitis microfilariae (motility, completely immotile %); type: cell-based, Dirofilaria immitis

Substance: Ivermectin [reference compound]
- pIC50 [1]: 4.43
- Completely Immotile Microfilariae (%) ([2]; 2.5 µM, 0 h): 0%
- Mean completely Immotile (%) ([2]; 2.5 µM, 0 h): 0%
- Completely Immotile Microfilariae (%) ([2]; 2.5 µM, 24 h): 1% and 2%
- Mean completely Immotile (%) ([2]; 2.5 µM, 24 h): 1.7%
- Completely Immotile Microfilariae (%) ([2]; 2.5 µM, 48 h): 1.5% and 2.5% and 2%
- Mean completely Immotile (%) ([2]; 2.5 µM, 48 h): 2.0%
- Completely Immotile Microfilariae (%) ([2]; 2.5 µM, 72 h): 2% and 2.5% and 3%
- Mean completely Immotile (%) ([2]; 2.5 µM, 72 h): 2.5%
- Completely Immotile Microfilariae (%) ([2]; 2.5 µM, 90 h): 3% and 4% and 4.5%
- Mean completely Immotile (%) ([2]; 2.5 µM, 96 h): 3.8%
- Completely Immotile Microfilariae (%) ([2]; 2.5 µM, 120 h): 5% and 5.5% and 7%
- Mean completely Immotile (%) ([2]; 2.5 µM, 120 h): 5.83%
- Mean completely Immotile (%) ([2]; 5 µM, 0 h): 0%
- Completely Immotile Microfilariae (%) ([2]; 5.0 µM, 0 h): 0%
- Mean completely Immotile (%) ([2]; 5 µM, 24 h): 2.3%
- Completely Immotile Microfilariae (%) ([2]; 5.0 µM, 24 h): 2% and 3%
- Mean completely Immotile (%) ([2]; 5 µM, 48 h): 3.7%
- Completely Immotile Microfilariae (%) ([2]; 5.0 µM, 48 h): 3% and 4%
- Mean completely Immotile (%) ([2]; 5 µM, 72 h): 5.0%
- Completely Immotile Microfilariae (%) ([2]; 5.0 µM, 72 h): 5% and 4.5% and 5.5%
- Completely Immotile Microfilariae (%) ([2]; 5.0 µM, 90 h): 7.5% and 7% and 8.5%
- Mean completely Immotile (%) ([2]; 5 µM, 96 h): 7.7%
- Mean completely Immotile (%) ([2]; 5 µM, 120 h): 15.0%
- Completely Immotile Microfilariae (%) ([2]; 5.0 µM, 120 h): 15% and 12.5% and 17.5%
- Completely Immotile Microfilariae (%) ([2]; 10 µM, 0 h): 0%
- Mean completely Immotile (%) ([2]; 10 µM, 0 h): 0%
- Completely Immotile Microfilariae (%) ([2]; 10 µM, 24 h): 3% and 4%
- Mean completely Immotile (%) ([2]; 10 µM, 24 h): 3.3%
- Completely Immotile Microfilariae (%) ([2]; 10 µM, 48 h): 5% and 6%
- Mean completely Immotile (%) ([2]; 10 µM, 48 h): 5.7%
- Completely Immotile Microfilariae (%) ([2]; 10 µM, 72 h): 7.5% and 8.5%
- Mean completely Immotile (%) ([2]; 10 µM, 72 h): 7.8%
- Completely Immotile Microfilariae (%) ([2]; 10.0 µM, 90 h): 25% and 28.5% and 30%
- Mean completely Immotile (%) ([2]; 10 µM, 96 h): 27.8%
- Completely Immotile Microfilariae (%) ([2]; 10 µM, 120 h): 50% and 53.5% and 53%
- Mean completely Immotile (%) ([2]; 10 µM, 120 h): 52.2%
- Mean completely Immotile (%) ([2]; 15 µM, 0 h): 0%
- Completely Immotile Microfilariae (%) ([2]; 15.0 µM, 0 h): 0%
- Mean completely Immotile (%) ([2]; 15 µM, 24 h): 3.8%
- Completely Immotile Microfilariae (%) ([2]; 15.0 µM, 24 h): 3.5% and 4.5%
- Mean completely Immotile (%) ([2]; 15 µM, 48 h): 6.2%
- Completely Immotile Microfilariae (%) ([2]; 15.0 µM, 48 h): 6% and 6.7%
- Mean completely Immotile (%) ([2]; 15 µM, 72 h): 11.0%
- Completely Immotile Microfilariae (%) ([2]; 15.0 µM, 72 h): 10% and 12% and 11%
- Completely Immotile Microfilariae (%) ([2]; 15.0 µM, 90 h): 30% and 37% and 33%
- Mean completely Immotile (%) ([2]; 15 µM, 96 h): 33.3%
- Mean completely Immotile (%) ([2]; 15 µM, 120 h): 72.3%
- Completely Immotile Microfilariae (%) ([2]; 15.0 µM, 120 h): 70% and 75% and 72%
- Mean completely Immotile (%) ([2]; 20 µM, 0 h): 0%
- Completely Immotile Microfilariae (%) ([2]; 20.0 µM, 0 h): 0%
- Mean completely Immotile (%) ([2]; 20 µM, 24 h): 11.2%
- Completely Immotile Microfilariae (%) ([2]; 20.0 µM, 24 h): 10% and 12.5% and 11%
- Mean completely Immotile (%) ([2]; 20 µM, 48 h): 15.7%
- Completely Immotile Microfilariae (%) ([2]; 20.0 µM, 48 h): 15% and 17%
- Mean completely Immotile (%) ([2]; 20 µM, 72 h): 26.0%
- Completely Immotile Microfilariae (%) ([2]; 20.0 µM, 72 h): 25% and 30% and 23%
- Completely Immotile Microfilariae (%) ([2]; 20.0 µM, 90 h): 50% and 65% and 49%
- Mean completely Immotile (%) ([2]; 20 µM, 96 h): 54.7%
- Mean completely Immotile (%) ([2]; 20 µM, 120 h): 90.3%
- Completely Immotile Microfilariae (%) ([2]; 20.0 µM, 120 h): 90% and 94% and 87%
- Mean completely Immotile (%) ([2]; 30 µM, 0 h): 0%
- Completely Immotile Microfilariae (%) ([2]; 30.0 µM, 0 h): 0%
- Mean completely Immotile (%) ([2]; 30 µM, 24 h): 27.7%
- Completely Immotile Microfilariae (%) ([2]; 30.0 µM, 24 h): 25% and 30% and 28%
- Mean completely Immotile (%) ([2]; 30 µM, 48 h): 43.0%
- Completely Immotile Microfilariae (%) ([2]; 30.0 µM, 48 h): 40% and 46% and 43%
- Mean completely Immotile (%) ([2]; 30 µM, 72 h): 56.0%
- Completely Immotile Microfilariae (%) ([2]; 30.0 µM, 72 h): 50% and 60% and 58%
- Completely Immotile Microfilariae (%) ([2]; 30.0 µM, 90 h): 80% and 85% and 88%
- Mean completely Immotile (%) ([2]; 30 µM, 96 h): 84.3%
- Mean completely Immotile (%) ([2]; 30 µM, 120 h): 95.3%
- Completely Immotile Microfilariae (%) ([2]; 30.0 µM, 120 h): 95% and 98% and 93%
- pEC50 ([2]; read-out: Anti-parasitic EC50): 4.75
